Test results taken from article PMC9541320, “Machine Learning Guided Discovery of Non‐Hemolytic Membrane Disruptive Anticancer Peptides” (Chemmedchem, 2022).
In brackets after ≈: the same amount, converted by molar mass. Where two headings read alike, the source gives them in different places. Where a SMILES comes first, the peptide text is derived from it. Where no end group is shown, it is not given here. [ ]: non-standard residue; d: D form.

Columns and labels:
P. aeruginosa PAO1 (WT) = assay type: cell-based, Pseudomonas aeruginosa
Procedure: (§1) […]. Minimal inhibitory concentration (MIC) determination. The minimal inhibitory concentration (MIC) was determined by using broth microdilution method. Antimicrobial activity was assayed against P. aeruginosa PAO1 (WT), Acinetobacter baumannii (ATCC19606). […]. The next day, 15 μL of MTT solution was added to each well of the plate, such a way that MIC was defined as the lowest concentration of the peptide that inhibited visible growth of the tested bacteria.

HeLa cells = assay: Cell viability assay by AlamarBlue, HeLa cells; assay type: cell-based; details: 72 h incubation at 37 °C in DMEM high glucose medium with 10 % FBS; read-out: Toxicity IC50 HeLa
Procedure: (§2) To measure potential ACP activity, we exposed HeLa cells to 50 μM of each peptide for 72 h and quantified remaining live cells with Alamar Blue. We performed full IC50 determination for active sequences under the same conditions and similarly profiled HEK293 cells as a model for non‐cancer cells.
(§3) Cell Viability assay by AlamarBlue. […] HEK‐293 were seeded into well plates, pretreated with solution of poly‐L‐Lysine. The medium was removed and the compounds at increasing concentration were added into the wells. The cells were incubated for 72 h in 200 μL/well at 37 °C in corresponding medium in the presence of 5 % CO2. After incubation time the medium was removed and replaced by 100 μL/well of medium containing 10 % AlamarBlue. The cells were incubated for 3–5 h at 37 °C with 5 % CO2 in a humidified atmosphere. The fluorescence was then measured on a Tecan Infinite M1000 Pro plate reader at λex 560 nm and λem 590 nm. The value was normalized according to the untreated cells.

[1] = test system: Acinetobacter baumannii (ATCC19606); assay type: cell-based
Procedure: as §1

HEK293 cells = assay: Cell viability assay by AlamarBlue, HEK293 cells (model for non-cancer cells); assay type: cell-based; details: 72 h incubation at 37 °C in DMEM high glucose medium with 10 % FBS; read-out: Toxicity IC50 HEK 293
Procedure: as §2, §3

[2] = test system: human red blood cells (hRBC); assay: Hemolysis assay on human red blood cells; assay type: cell-based
Excerpt: Synthesis and bioactivity testing. We prepared the 33 selected peptides, as well as the reference ACP LL‐III, by semi‐automated high‐temperature Fmoc solid‐phase peptide synthesis and obtained pure samples by preparative HPLC. All peptides were well‐behaved in terms of aqueous solubility, in line with the presence of two to seven cationic residues (lysine or arginine) in each sequence (Table 1). […]. We performed full IC50 determination for active sequences under the same conditions and similarly profiled HEK293 cells as a model for non‐cancer cells. Finally, we determined peptide concentrations causing 50 % hemolysis (HC50) on human red blood cells (hRBC) by serial 2‐fold dilution.
Hemolysis assay. Compounds were subjected to a hemolysis assay to assess the hemolytic effect on human red blood cells (hRBCs). […]. Controls on each plate included a blank medium control (PBS 100 μL) and a hemolytic activity control (0.1 % Triton^TM X‐100). 100 μL of hRBC suspension was incubated with 100 μL of each sample in PBS in V‐shape 96‐well plate. […]. Hemolysis was measured by analyzing the absorbance of free hemoglobin leaked out of compromised in the supernatants at 540 nm with a plate reader (Tecan instrument Infinite M1000). The percentage of hemolysis at each concentration was detected and HC50 was determined.

[3] = test system: human red blood cells (hRBC); details: below 200 μM; cited from earlier work
[4] = incubation 16–20 h at 37 °C in MH medium
[5] = human red blood cells in 10 mM phosphate buffer saline, pH 7.4, 25 °C

| Compound | MIC PAO1 (P. aeruginosa PAO1 (WT); [4]) | IC50 (HeLa cells) | MIC A. baumannii [1, 4] | IC50 (HEK293 cells) | Hemolysis HC50 hRBC [2, 5] | documented hemolysis [3] | Hemolysis HC50 hRBC ([2]; pH 7.4) | MIC PAO1 (P. aeruginosa PAO1 (WT); PAO1) | MIC A. baumannii ([1]; ATCC19606) |
| --- | --- | --- | --- | --- | --- | --- | --- | --- | --- |
| anwkkwigkviklvk [DB1] | 4 µg/mL | 6.2 ± 1.1 µM | 2 µg/mL | 13.1 ± 2.8 µM | – | – | – | – | – |
| CC[C@@H](C)[C@@H](NC(=O)[C@@H](CCCCN)NC(=O)[C@@H](CCCCN)NC(=O)[C@@H](Cc1c[nH]c2ccccc12)NC(=O)[C@@H](CC(N)=O)NC(=O)[C@H](N)C(C)C)C(=O)N[C@H](CC(C)C)C(=O)NCC(=O)N[C@H](CCCCN)C(=O)N[C@@H](C(=O)N[C@@H](C(=O)N[C@H](CCCCN)C(=O)N[C@@H](C(=O)N[C@@H](C(=O)N[C@H](CCCCN)C(N)=O)C(C)C)C(C)C)[C@H](C)CC)[C@H](C)CC [DLL‐III, vnwkkilgkiikvvk] (H-[dV][dN][dW][dK][dK][dI][dL]G[dK][dI][dI][dK][dV][dV][dK]-NH2) | 4 µg/mL (≈ 2.27 µM) | 5 ± 0.7 µM | 2 µg/mL (≈ 1.13 µM) | 14.5 ± 2 µM | >200 µM | – | – | – | – |
| VNWKKILGKIIKVVK-NH2 [LL‐III, lasioglossin III] | – | 6 ± 0.5 µM | 4 µg/mL | 15 ± 3 µM | >200 µM | non‐hemolytic | – | – | – |
| C[C@@H](NC(=O)[C@H](N)Cc1ccccc1)C(=O)N[C@H](CCCCN)C(=O)N[C@H](CCCCN)C(=O)N[C@H](Cc1ccccc1)C(=O)N[C@H](Cc1ccccc1)C(=O)N[C@H](CCCCN)C(=O)N[C@H](CCCCN)C(=O)N[C@H](Cc1ccccc1)C(=O)N[C@H](C)C(=O)N[C@H](CCCCN)C(=O)N[C@H](Cc1ccccc1)C(=O)N[C@H](C)C(=O)N[C@H](Cc1ccccc1)C(=O)N[C@H](CCCCN)C(N)=O [DA1, fakkffkkfakfafk] (H-[dF][dA][dK][dK][dF][dF][dK][dK][dF][dA][dK][dF][dA][dF][dK]-NH2) | – | 7.9 ± 0.3 µM | – | 15 ± 2.3 µM | – | – | >200 µM | 4 µg/mL (≈ 2.12 µM) | 4 µg/mL (≈ 2.12 µM) |
